Columns and labels:
Botrytis cinerea = test: Test Example B: Gray mold on tomato; conditions: for Test B control value class: class of control value
Puccinia recondita = test: Test Example E: Brown rust on wheat; type: in vivo; conditions: for Test E control value class: class of control value
[1] = tested on: Blumeria graminis f. sp. hordei; test: Test Example D: Powdery mildew on barley; conditions: for Test D control value class: class of control value
Experimental: Seeds of a test plant (barley variety: Akashinriki) were planted and cultivated until the first leaves appeared. In the test, the inventive compounds were dissolved into dimethyl sulfoxide-methanol mixture solution (volume ratio: 9/1), and the resultant solutions were diluted with well water to a concentration of 250 ppm to obtain the drug solutions. The drug solutions were sprayed to the test plant (2.5 ml/pot). After the drug solutions dried, conidia of Blumeria graminis f. sp. hordei were inoculated to the plant by shaking off. The degrees of disease development were investigated 6 to 10 days after the inoculation, and the effectiveness of the drug solutions was evaluated.
In Test Examples described above, the degrees of disease development were evaluated in increments of 0.05 from 0 (as no incidence of disease) to 3 (as the degree of disease development in an untreated plant group). Further, control values were calculated using the following equation based on the degree of disease development.
n=Degree of disease development in each treated group

Alternaia brassicicola = test: Test Example C: Alternaria sooty spot on cabbage; type: in vivo; conditions: for Test C control value class: class of control value
From the text: Seeds of a test plant (cabbage variety: Shikidori) were planted and cultivated until the cotyledons extended.
<Control Value> Control value=100{1−(n/3)}

Phytophthora infestans = test: whole plant or invertebrate; type: in vivo; conditions: for Test F control value class: class of control value
Magnaporthe grisea = test: whole plant or invertebrate; type: in vivo; conditions: for Test A control value class: class of control value
Plasmopara viticola = test: Test Example G: Downy mildew on vine; conditions: for Test G control value: 7 to 10 days after inoculation; for Test G control value class: Downy mildew on vine (Neomuscat), 2.5 ml/pot, assessed 7 to 10 days after inoculation
[2] = tested on: Colletotrichum orbiculare; test: Test Example H: Anthracnose on cucumber; conditions: for Test H control value: 6 to 10 days after inoculation; for Test H control value class: Anthracnose on cucumber (Sagami Hanjiro), 2.5 ml/pot, assessed 6 to 10 days after inoculation
[3] = Gray mold on tomato, control value class
[4] = Brown rust on wheat, control value class
[5] = Powdery mildew on barley, control value class
[6] = Alternaria sooty spot on cabbage, control value class
[7] = Late blight on tomato, control value class
[8] = Blast on rice, control value class
[9] = Downy mildew on vine, 250 ppm spray
[10] = Anthracnose on cucumber, 250 ppm spray
[11] = Alternaria sooty spot on cabbage
[12] = 250 ppm drug solution sprayed on test plant
[13] = 250 ppm drug solution sprayed (2.5 ml/pot), grape Neomuscat
[14] = 250 ppm drug solution sprayed (2.5 ml/pot), cucumber Sagami Hanjiro

| SMILES | Test B control value (Botrytis cinerea; [3]) | Test E control value (Puccinia recondita; [4]) | Test D control value [1, 5] | Test C control value (Alternaia brassicicola; [6]) | Test F control value (Phytophthora infestans; [7]) | Test A control value (Magnaporthe grisea; [8]) | Test G control value (Plasmopara viticola; [9]) | Test H control value [2, 10] | Test B control value class (Botrytis cinerea; Gray mold on tomato) | Test E control value class (Puccinia recondita; Brown rust on wheat) | Test D control value class ([1]; Powdery mildew on barley) | Test C control value class (Alternaia brassicicola; [11]) | Test F control value class (Phytophthora infestans; Late blight on tomato) | Test A control value class (Magnaporthe grisea; Blast on rice) | Test G control value class (Plasmopara viticola; 250 ppm spray) | Test H control value class ([2]; 250 ppm spray) | other results |
| --- | --- | --- | --- | --- | --- | --- | --- | --- | --- | --- | --- | --- | --- | --- | --- | --- | --- |
| CCCc1cc(Br)c(=O)n(C)c1-c1ccc(OC)cc1Cl [compound 336] | H (more than 50% control value) | H (more than 50% control value) | L (50% or less control value) | H (more than 50% control value) | L (50% or less control value) | H (more than 50% control value) | H (more than 50% control value) | H (more than 50% control value) |  |  |  |  |  |  |  |  |  |
| CCc1cc(Cl)c(=O)n(C)c1-c1ccc(F)cc1Br [compound 349] | H (more than 50% control value) | H (more than 50% control value) | H (more than 50% control value) | H (more than 50% control value) | L (50% or less control value) | L (50% or less control value) | H (more than 50% control value) | L (50% or less control value) |  |  |  |  |  |  |  |  |  |
| CCn1c(-c2c(F)cc(F)cc2F)c(CC(C)C)cc(C)c1=O [compound 306] | H (more than 50% control value) | H (more than 50% control value) | H (more than 50% control value) | H (more than 50% control value) | L (50% or less control value) | H (more than 50% control value) | H (more than 50% control value) | H (more than 50% control value) |  |  |  |  |  |  |  |  |  |
| CCn1c(-c2c(F)cccc2OC)c(CC(C)C)cc(Cl)c1=O [compound 97] |  |  |  |  |  |  |  |  | H (more than 50% control value) | H (more than 50% control value) | H (more than 50% control value) | H (more than 50% control value) | L (50% or less control value) | H (more than 50% control value) | L (50% or less control value) | H (more than 50% control value) |  |
| CCC1=C(c2ccc(F)cc2Br)N(CC)C(=O)CC1 [compound 338] | L (50% or less control value) | L (50% or less control value) | L (50% or less control value) | H (more than 50% control value) | L (50% or less control value) | L (50% or less control value) | L (50% or less control value) | L (50% or less control value) |  |  |  |  |  |  |  |  |  |
| CCn1c(-c2ccc(OC)cc2Cl)c(CC(C)C)cc(Br)c1=O [compound 240] | H (more than 50% control value) | H (more than 50% control value) | H (more than 50% control value) | H (more than 50% control value) | L (50% or less control value) | H (more than 50% control value) | H (more than 50% control value) | H (more than 50% control value) |  |  |  |  |  |  |  |  |  |
| CCn1c(-c2c(F)cc(F)cc2F)c(C(O)CC(C)C)cc(Cl)c1=O (centres unmarked) [compound 90] |  |  |  |  |  |  |  |  | H (more than 50% control value) | H (more than 50% control value) | H (more than 50% control value) | H (more than 50% control value) | L (50% or less control value) | H (more than 50% control value) | H (more than 50% control value) | H (more than 50% control value) |  |
| CC#CCOc1cc(F)c(-c2c(CCC)cc(Br)c(=O)n2CC)c(F)c1 [compound 462] |  |  |  |  |  |  |  |  |  |  |  |  |  |  |  |  | Test B control value (Botrytis cinerea; [12]): H (more than 50% control value); Test E control value (Puccinia recondita; [12]): H (more than 50% control value); Test D control value [1, 12]: L (50% or less control value); Test C control value (Alternaia brassicicola; [12]): H (more than 50% control value); Test F control value (Phytophthora infestans; [12]): H (more than 50% control value); Test A control value (Magnaporthe grisea; [12]): L (50% or less control value); Test G control value (Plasmopara viticola; [13]): L (50% or less control value); Test H control value [2, 14]: H (more than 50% control value) |
| COc1cc(F)c(-c2c(C(C)C)ccc(=O)n2C)c(F)c1 [compound 14] |  |  |  |  |  |  |  |  | H (more than 50% control value) | H (more than 50% control value) | H (more than 50% control value) | H (more than 50% control value) | H (more than 50% control value) | H (more than 50% control value) | L (50% or less control value) | H (more than 50% control value) |  |
| C#Cc1cc(Cl)c(=O)n(CC)c1-c1ccc(F)cc1Cl [compound 302] | H (more than 50% control value) | H (more than 50% control value) | L (50% or less control value) | L (50% or less control value) | L (50% or less control value) | H (more than 50% control value) | L (50% or less control value) | H (more than 50% control value) |  |  |  |  |  |  |  |  |  |
| CCCc1cc(Cl)c(=O)n(C)c1-c1ccc(OC)cc1Br [compound 417] |  |  |  |  |  |  |  |  |  |  |  |  |  |  |  |  | Test B control value (Botrytis cinerea; [12]): H (more than 50% control value); Test E control value (Puccinia recondita; [12]): H (more than 50% control value); Test D control value [1, 12]: L (50% or less control value); Test C control value (Alternaia brassicicola; [12]): H (more than 50% control value); Test F control value (Phytophthora infestans; [12]): L (50% or less control value); Test A control value (Magnaporthe grisea; [12]): L (50% or less control value); Test G control value (Plasmopara viticola; [13]): L (50% or less control value); Test H control value [2, 14]: H (more than 50% control value) |
| CCn1c(-c2c(F)cc(F)cc2F)c(C(O)C(C)(C)C)cc(Cl)c1=O (racemic) [compound 163] |  |  |  |  |  |  |  |  | H (more than 50% control value) | H (more than 50% control value) | H (more than 50% control value) | H (more than 50% control value) | L (50% or less control value) | H (more than 50% control value) | H (more than 50% control value) | H (more than 50% control value) |  |
| CCn1c(-c2c(F)cccc2F)c(COC)cc(Cl)c1=O [compound 45] |  |  |  |  |  |  |  |  | H (more than 50% control value) | H (more than 50% control value) | H (more than 50% control value) | H (more than 50% control value) | L (50% or less control value) | H (more than 50% control value) | L (50% or less control value) | L (50% or less control value) |  |
